Assay [1] in a line: microbe, parasite or virus in culture. The conditions noted are these: Mycobacterium tuberculosis, 96 h, read-out: pIC50 (converted).
Assay [2] can be described thus: microbe, parasite or virus in culture. The note with it: Mycobacterium tuberculosis, 72 h, read-out: pIC50 (converted).

These results are taken from ChEMBL document CHEMBL3988442, “University of Dundee, Small-Polar-MMV Screening Library” (2021).

Turning to `C=C(C)Cn1c(S(C)(=O)=O)nc2ccccc21`, the IC50 in assay [1] is above 501 µM; in assay [2], 135 µM.
The like results for `O=C(NCC(O)c1ccc(F)cc1)Nc1cnns1` (stereo unspecified) were, in that order, above 501 µM and above 501 µM.
Turning to `CC(=O)N1CCCC(c2cnc(-c3c(C)nn(C)c3C)cn2)C1` (stereo unspecified), the IC50 in assay [1] and in assay [2] was above 50.1 µM in each case.
Consider `COCC(=O)NC1CCc2ccccc21` (stereo unspecified), for which the IC50 in assay [1] was 124 µM; in assay [2], 114 µM.
For `O=C(CC1C=CCC1)N1CCN(c2ccccn2)CC1` (stereo unspecified), the IC50 in assay [1] is 407 µM; in assay [2], 167 µM.
For `COCCOCCCNC(=O)c1cn2cc(C)nc2s1`, in that order: above 501 µM and 271 µM.
The like results for `Cc1nc(CSCCC(=O)Nc2cccc(N3CCNC3=O)c2)cs1` were, in that order, above 50.1 µM and above 50.1 µM.
The like results for `COC(=O)c1cc(C)nc(N2CCN(Cc3cc(C(C)C)no3)CC2)n1` were, in that order, above 50.1 µM and above 50.1 µM.
For `CCc1nc(CN2CCCN(c3cnc4ccccc4n3)CC2)no1`, the values for the IC50 in assay [1] and in assay [2] were 26.5 µM and above 50.1 µM, respectively.
For `CC(N)CCc1ccc2c(c1)OCO2` (stereo unspecified), in that order: 274 µM and 185 µM.
For `O=C(c1cc(COc2ccc3c(c2)OCO3)[nH]n1)N1CCSCC1`, in that order: 33.5 µM and 31.8 µM.
On to `COCCN1CCC(CNC(=O)N2CCC(C)CC2)C1` (stereo unspecified), for which the IC50 in assay [1] is 83.9 µM; in assay [2] it was 75.1 µM.
Consider `Cc1ccc(C(=O)N2CCC3(CCCCO3)CC2)cn1`, for which the values for the IC50 in assay [1] and in assay [2] were above 501 µM and 258 µM, respectively.
The like results for `Cc1cccc(C(=O)NCc2cccc(O)c2)n1` were, in that order, 489 µM and 172 µM.
The like results for `Cc1csc(NC(=O)C(C)Oc2ccc3c(c2)OCO3)n1` (stereo unspecified) were, in that order, 1.63 µM and 30.5 µM.
The like results for `O=C(NCCNC(=O)C1CCCC1)c1ccccc1O` were, in that order, 402 µM and 229 µM.
With `CN(C(=O)CN)c1ccc(-c2ccccc2)cc1`, the values for the IC50 in assay [1] and in assay [2] were 260 µM and 305 µM, respectively.
For `C[C@H](c1ccc(Cl)cc1)n1c(CCN)n[nH]c1=O`, in that order: above 501 µM and 38.3 µM.
On to `O=C(Cc1cn2ccsc2n1)NCC1CCC1`, for which the results for the IC50 in assay [1] and in assay [2] were 179 µM and 282 µM, respectively.
For `O=C(CC1CC1)N[C@@H]1CN(Cc2ccoc2)C[C@@H]2CCCO[C@@H]21`, in that order: above 50.1 µM and above 50.1 µM.
For `NCC(=O)N1CCCC(CCc2ccccc2F)C1` (stereo unspecified), in that order: 256 µM and 271 µM.
For `CN(CCN1CCCC1)S(=O)(=O)c1ccccc1`, in that order: above 501 µM and 208 µM.
For `Cc1cc(CN)on1`, the IC50 in assay [1] and in assay [2] was 293 µM each time.
As for `NC(=O)COc1cc(Cl)cc(Cl)c1`, the IC50 is 278 µM in assay [1] and 246 µM in assay [2].
For `CC(C(=O)NCc1cccs1)S(=O)(=O)C1CCCC1` (stereo unspecified), the IC50 in assay [1] was above 501 µM; in assay [2], 164 µM.
For `Cc1c(C(=O)NC2=NCCS2)oc2ccccc12`, in that order: 247 µM and 279 µM.
Consider `CN(C)c1ncccc1CNS(=O)(=O)c1ccccc1`, for which the IC50 in assay [1] and in assay [2] was above 501 µM each time.
For the compound `COC(=O)COn1c(SC(C)C)nc2ccccc2c1=O`, the IC50 in assay [1] is above 50.1 µM; in assay [2], 43.2 µM.
For `NCC(O)c1ccc(Cl)s1` (stereo unspecified), in that order: 290 µM and 241 µM.
`CC(C)(C)OC(=O)c1ncccc1N`: the IC50 is 265 µM in assay [1] and above 501 µM in assay [2].
On to `Cc1csc(CN(C)CCOc2ccccc2)n1`, for which the IC50 in assay [1] is 20.5 µM; in assay [2] it was 23 µM.
The like results for `CC(C)CC(O)C(=O)N1CCN(c2cccnc2)CC1` (stereo unspecified) were, in that order, above 501 µM and 118 µM.
As to `O=C(CCn1cccc1)NCc1ccco1`, the IC50 in assay [1] is above 501 µM; in assay [2], 96 µM.
